Data as given in patent US10981899B2, “Inhibitors of soluble adenylyl cyclase” (CORNELL UNIVERSITY, priority 2016, dated 2021).

Key:
MEFs = experiment: CellTiter-Glo cytotoxicity assay; format: cell-based, mouse
Experimental: Cell viability, as determined by CellTiter-Glo, is shown as luminescence; values are averages of triplicate determinations ±S.E.M. of a representative experiment repeated at least two times. […] Data represent single measurements of a representative experiment repeated at least two times.
(§1) The next day, compounds were added (ten concentrations), and the plates were incubated for 24 or 48 hrs at 37° C./5% CO2, and viability was quantified by measuring cellular ATP using luminescence (CellTiter-Glo®, Promega, Madison, Wis., USA) or viability based upon amount of DNA (CyQUANT®, ThermoFisher).

[1] = CyQUANT cell proliferation/viability assay; format: cell-based
Experimental: as §1

mouse brain mitochondria = experiment: Membrane potential in isolated mouse brain mitochondria (uncoupling); details: 50 and 100 μM LRE1, 50 μM KH7
sAC = sAC (Homo sapiens (Human), UniProt Q96PN6); experiment: ELISA-based Correlate-EIA Direct cAMP Assay of in vitro sAC activity
Excerpt: To avoid assay dependent artifacts, reproducibility and concentration-dependency were simultaneously assessed in the RF-MSS cyclase assay as well as in an independent colorimetric competitive enzyme immunoassay (i.e., ELISA-based Correlate-EIA Direct cAMP Assay).

human sACt protein [2] = target: T1, human sACt protein (Homo sapiens (Human), UniProt Q96PN6); experiment: Primary high-throughput screen for sAC inhibitors (RF-MSS cyclase assay); format: biochemical; details: screened at 10 μM; 1 mM ATP, 5 mM MgCl2, 5 mM CaCl2, 40 mM NaHCO3
Experimental: This instrument also includes a Zymark Twister® robotic arm that handles microtiter plates and a purification SPE system. 35 μl of sample was aspirated from each well of a 384-well reaction microtiter plate and then injected onto a graphitized carbon SPE column extraction cartridge, washing with aqueous alkaline buffer and eluting it in an alkaline/organic solvent, onto the electrospray-MS, where the mass spectra of each sample was collected. The RapidFire sipper was washed between sample injections using organic (25% acetonitrile, 25% acetone in 5 mM ammonium acetate, pH 10) and aqueous (5 mM ammonium acetate, pH 10) solvents. RapidFire mass spectrometry screening data were processed and analyzed using Agilent MassHunter Software.
The primary screen was performed in polystyrene 384-well microplates (Greiner Bio One International AG). […] The reagents were dispensed using a liquid handling instrument Multidrop™ Combi Assay buffer (50 mM Tris pH 7.5, 5 mM CaCl2, 5 mM MgCl2, 40 mM NaHCO3, 2 mM DTT) was added first on the 384-well plate (Greiner Bio-One) followed by the compounds. The small molecule compounds were dispensed with a nanohead containing a 384-well array of Norgren Kloehn nanosyringes, and each plate was bar-coded. The human sACt protein was added next followed by the remainder of the assay buffer. […]

human sACt protein [3] = target: T1, human sACt protein; experiment: RF-MSS in vitro cyclase assay, concentration-response
Experimental: To avoid assay dependent artifacts, reproducibility and concentration-dependency were simultaneously assessed in the RF-MSS cyclase assay as well as in an independent colorimetric competitive enzyme immunoassay (i.e., ELISA-based Correlate-EIA Direct cAMP Assay). […] This instrument also includes a Zymark Twister® robotic arm that handles microtiter plates and a purification SPE system. 35 μl of sample was aspirated from each well of a 384-well reaction microtiter plate and then injected onto a graphitized carbon SPE column extraction cartridge, washing with aqueous alkaline buffer and eluting it in an alkaline/organic solvent, onto the electrospray-MS, where the mass spectra of each sample was collected. The RapidFire sipper was washed between sample injections using organic (25% acetonitrile, 25% acetone in 5 mM ammonium acetate, pH 10) and aqueous (5 mM ammonium acetate, pH 10) solvents. RapidFire mass spectrometry screening data were processed and analyzed using Agilent MassHunter Software.

T1 sequence (Q96PN6 1-469): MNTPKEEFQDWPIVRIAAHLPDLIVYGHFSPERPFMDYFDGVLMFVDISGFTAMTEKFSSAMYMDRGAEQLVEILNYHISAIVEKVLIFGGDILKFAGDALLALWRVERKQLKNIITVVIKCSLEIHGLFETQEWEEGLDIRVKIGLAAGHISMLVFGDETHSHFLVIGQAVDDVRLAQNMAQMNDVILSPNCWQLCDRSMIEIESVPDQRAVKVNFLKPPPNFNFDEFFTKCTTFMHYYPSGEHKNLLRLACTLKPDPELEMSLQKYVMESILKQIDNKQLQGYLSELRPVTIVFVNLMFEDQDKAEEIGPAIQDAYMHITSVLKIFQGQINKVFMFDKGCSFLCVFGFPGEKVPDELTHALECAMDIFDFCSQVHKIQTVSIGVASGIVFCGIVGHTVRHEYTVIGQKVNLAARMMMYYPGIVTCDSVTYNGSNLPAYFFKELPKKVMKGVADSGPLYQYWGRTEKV
sAC, sequence (Q96PN6 1-469): as above

SMILES | toxicity (CellTiter-Glo) (MEFs; 2 days in culture, WT MEFs, KH7 at low μM, LRE1 up to 50 μM) | toxicity (CellTiter-Glo) (MEFs; single day in culture) | toxicity (CyQUANT) ([1]; second day) | toxicity (CyQUANT) ([1]; single day) | mitochondrial uncoupling (mouse brain mitochondria) | IC50 (sAC) [µM] | Primary Screen (% NPI) (human sACt protein [2]) | IC50 (human sACt protein [3]) [µM]
CC(Sc1nc2ccccc2[nH]1)C(=O)N/N=C/c1cc(Br)ccc1O (centres unmarked) [KH7] | toxic | neither compound exhibited significant toxicity | toxic at low μM concentrations | neither LRE1 nor KH7 were toxic | uncoupling effect |  |  | 
Cc1cccc(-n2nc(S)sc2=S)c1 [RU-0207328] |  |  |  |  |  | > 20 | 58.1 | > 20
